# Measured values: PubChem BioAssay (NCI)
#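 GI50: concentration for 50% inhibition of growth. TGI: concentration producing complete growth inhibition.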
# Key:
# Test in all cases: DTP human tumour cell line panel, 384-well format
# UACC-257 melanoma = system: UACC-257 melanoma
# HL-60(TB) leukemia = system: HL-60(TB) leukemia
# PC-3 prostate = system: PC-3 prostate
# NCI-H226 lung = system: NCI-H226 lung
# HT29 colon = system: HT29 colon
# HCT-116 colon = system: HCT-116 colon
# CAKI-1 renal = system: CAKI-1 renal
# NCI-H460 NSCLC = system: NCI-H460 NSCLC
# T-47D breast = system: T-47D breast
# LOX IMVI melanoma = system: LOX IMVI melanoma
# RPMI-8226 leukemia = system: RPMI-8226 leukemia
# UACC-62 melanoma = system: UACC-62 melanoma
# HCT-15 colon = system: HCT-15 colon
compound,measurement,setting,value
CC(C)(O)CNc1nc(Nc2ccnc(C(F)(F)F)c2)nc(-c2cccc(C(F)(F)F)n2)n1,GI50,UACC-257 melanoma,19.4 µM
same,TGI,UACC-257 melanoma,33.8 µM
same,GI50,HL-60(TB) leukemia,14.9 µM
same,TGI,HL-60(TB) leukemia,28.3 µM
same,GI50,PC-3 prostate,18.2 µM
same,TGI,PC-3 prostate,33.9 µM
same,GI50,NCI-H226 lung,16.2 µM
same,TGI,NCI-H226 lung,31.7 µM
same,GI50,HT29 colon,15.2 µM
same,TGI,HT29 colon,29.6 µM
same,GI50,HCT-116 colon,17.3 µM
same,TGI,HCT-116 colon,33.2 µM
same,GI50,CAKI-1 renal,21.3 µM
same,TGI,CAKI-1 renal,45.2 µM
same,GI50,NCI-H460 NSCLC,17.5 µM
same,TGI,NCI-H460 NSCLC,32.6 µM
same,GI50,T-47D breast,9.87 µM
same,TGI,T-47D breast,23 µM
same,GI50,LOX IMVI melanoma,10.7 µM
same,TGI,LOX IMVI melanoma,25.1 µM
same,GI50,RPMI-8226 leukemia,18.7 µM
same,TGI,RPMI-8226 leukemia,32.9 µM
same,GI50,UACC-62 melanoma,17.8 µM
same,TGI,UACC-62 melanoma,31.8 µM
same,GI50,HCT-15 colon,13.5 µM
same,TGI,HCT-15 colon,28.1 µM
